The conditions of this series: 298.15 K; 101.33 kPa; Liquid; Vibrating tube method.

Numbers after ± are expanded uncertainties.

Consider `O=Cc1ccccc1` [benzaldehyde], for which the mass density (commonly mass per unit of volume) amounted to 1042.94 ± 0.26 kg/m3. The result for `CCCCCCCCCC` [decane] reads 726.43 ± 0.25 kg/m3.

Turning to `CCCCCCCCCCCC` [dodecane], the mass density was found to be 741.54 ± 0.58 kg/m3. Regarding `CCCCCCCCCCCCCCCC` [hexadecane], the mass density is on record as 770.21 ± 0.24 kg/m3. The result for `CCCCCCCCCCCCCC` [tetradecane] reads 759.27 ± 0.24 kg/m3.

Source of the values: the NIST ThermoML archive (doi:10.1016/j.fluid.2014.01.013).
